The source of these data is US12466839B2, “Allosteric AKT inhibitors for use in the treatment of Hereditary Hemorrhagic Telangiectasia” (VADERIS THERAPEUTICS AG, priority 2020, dated 2025).

Each structure is given as a SMILES string. “Also recorded” adds a separate entry of the source.

A short description of data set [1]: Pharmacokinetics (PK) profile in neonate mice. The format is in vivo, mouse. The method, then:
Terminal blood samples collected at 24 h and 48 h post injections were collected from each mouse under isoflurane anaesthesia for the preparation of plasma. 4 neonate mice were used per time point in the study. Blood was collected into EDTA coated microvettes (Sartsed) for plasma preparation. Blood was centrifuged at 2700×g for 10 minutes and approximately 30 to 40 μl plasma was removed and aliquoted into polypropylene tubes (two aliquots per animal). Plasma samples were stored at −80° C. until bioanalysis. VAD044 compound levels in plasma samples was determined by LC-MS/MS.

A short description of data set [2]: Pup lethality / adverse effects in Eng-iKO mice. The format is in vivo. The protocol:
The Eng Flox/flox; cdh5-CreERT2 were injected with tamoxifen (50 μg) at P2 to induce nearly […] The same volume of vehicle was injected serving as control animals. Mice were then euthanized at P7 and retinas processed for immunofluorescence staining as described (Lebrin et al., as above).
(§1) The same volume of vehicle was injected serving as control animals. Mice were then euthanized at P7 and retinas processed for immunofluorescence staining as described (Lebrin et al., as above).

For data set [3], the system named is angiogenesis in C57Bl/6J mice retinas. Put plainly: Neonatal retinal angiogenesis model in wild-type mice. As to conditions: for anti-angiogenic properties (overall conclusion): mouse retinas. The class given is in vivo, mouse (C57Bl/6J). From the text:
(§2) For the retinal vascular network, quantification of the number of AV shunts per mouse was done manually. […] A custom own-lab made macro allowed automatic processing of the images, using the same processing and quantification parameters. Briefly, the brightness of the images was enhanced by modifying the pixel extreme values, which depends on the specific image histogram content. A Gaussian filter was applied to reduce the intensity in homogeneities. The filter order depended on the image resolution. Next, the threshold step was computed, based on a global threshold technique such as Otsu's method or Li's method, resulting in binary image. A median filter was then applied to eliminate potential local irregularities, which could cause false branching point detection. From the binary images, the vascular density was quantified (calculated as the ratio of pixels associated with the vessels divided by the total number of pixels in the image). For the other parameters, a skeleton of the images was first computed using ImageJ, then the total vascular length was quantified using the Measure Skeleton Length plug-in from ImageJ. The number of branch points was extracted from the Analyze Skeleton plug-in of ImageJ. All results were transferred to Microsoft Office Excel software and automatically rearranged using a lab custom-made program. As all images generated at each step of the processing were saved, a visual control was made to ensure that there were no aberrant results.
(§3) Statistical analysis was performed with Prism 7 software (GraphPad). For most of the experiments, 1-way ANOVA was used for multiple comparisons. Results are expressed as mean±SEM. For post hoc pairwise, the Dunnett's test was used. A value of *P<0.05, **P<0.01, ***P<0.001 or ****P<0.0001 denotes statistical significance. An in-group variation of around 15% in parameters related to blood vessel architecture changes has been previously observed by the inventors, therefore a difference between controls and mutant mice of around 20-30% was anticipated. It was therefore expected that a group of 8 mice per condition would reveal statistical differences.
(§4) Eyes were fixed in 4% paraformaldehyde (PFA) in PBS at room temperature for 10 min, retinas were dissected, post-fixed in 4% PFA in PBS at 4° C. overnight then processed for immunostaining. Retinas were permeabilized in PBS, 1% BSA and 0.5% Triton X-100 at 4° C. overnight, rinsed in PBS, washed twice in PBlec (PBS, pH 6.8, 1% Triton-X-100, 0.1 mM CaCl2, 0.1 mM MgCl2, 0.1 mM MnCl2), and then incubated in biotinylated Griffonia simplicifolia lectin (isolectin B4) (B-1205, Vector Laboratories, 1:50) in PBlec at 4° C. overnight. After 5 washes in PBS, samples were incubated with streptavidin Cy-3 (PA43001, Sigma-Aldrich, 1:100) and with a-SMA (clone 1A4) (F3777, Sigma-Aldrich) conjugated with FITC diluted in PBS, 0.5% BSA, and 0.25% X-100 at 4° C. for 2 h. After washing, flat whole-mount retinas were mounted in DAKO medium (S3023, Dako). Complete high-resolution 3-dimensional rendering of whole-mount retinas was acquired using Laser Scanning Microscope SP5 or SP8 (Leica).

Data set [4] in a line: Safety/toxicity profile in wild-type neonatal mice. From the text: C57Bl/6J pregnant females were provided by Janvier Labs. EngFlox/flox mice (Mahmoud et al., (2010), “Pathogenesis of arteriovenous malformations in the absence of endoglin”, Circulation Research. https://doi.org/10.1161/[…].109.211037) were crossed with Cdh5(PAC)-CreERT2 (12) to generate endothelial specific inducible Eng knockout. Animal housing and procedures were in accordance with the Dutch Government guidelines and directive 2010/63/EU of the European Parliament. All efforts were made to minimize the number of animals used and their suffering. The institutional Committee for Animal Welfare of Leiden University Medical Center (project number AVD1160020171628) approved all protocols. Male and female mice were used during the first postnatal week to study retinal angiogenesis.
Retinas were processed for immunofluorescence staining as described (Lebrin et al., (2010), “Thalidomide stimulates vessel maturation and reduces epistaxis in individuals with hereditary hemorrhagic telangiectasia”, Nature Medicine. https://doi.org/10.1038/nm.2131).

Data set [5] concerns AVM formation in Eng-iKO mice. The data set is described as follows: Prevention of AVM formation in Eng-iKO mice (retinal vascular network). The format is in vivo, mouse. The method, then: The Eng Flox/flox; cdh5-CreERT2 were injected with tamoxifen (50 μg) at P2 to […] once at P3, P4, P5 and P6. The same volume of vehicle was injected serving as control animals. Mice were then euthanized at P7 and retinas processed for immunofluorescence staining as described (Lebrin et al., as above).
as §1, §2, §3, §4

The subject of data set [6] is AKT kinase in Pi3Kα or PTEN mutant cells lines (e.g. MCF7, BT474 or LnCAP). As to conditions: similar cell line; cited from earlier work.
Data set [7] has as its system nosebleeds in HHT patients. Conditions: HHT patients (Lebrin et al.); cited from earlier work.
A further data set concerns the target AKT2 (Homo sapiens, UniProt P31751). The data set is described as follows: Co-crystal structure in complex with AKT2. As to conditions: 2.32 Å co-crystal structure with AKT2. The format is binding.
The mark [8] stands for this setting: once at P4, 5 to 25 mg·kg-1, i.p.

Chain of AKT2 (P31751 whole entry): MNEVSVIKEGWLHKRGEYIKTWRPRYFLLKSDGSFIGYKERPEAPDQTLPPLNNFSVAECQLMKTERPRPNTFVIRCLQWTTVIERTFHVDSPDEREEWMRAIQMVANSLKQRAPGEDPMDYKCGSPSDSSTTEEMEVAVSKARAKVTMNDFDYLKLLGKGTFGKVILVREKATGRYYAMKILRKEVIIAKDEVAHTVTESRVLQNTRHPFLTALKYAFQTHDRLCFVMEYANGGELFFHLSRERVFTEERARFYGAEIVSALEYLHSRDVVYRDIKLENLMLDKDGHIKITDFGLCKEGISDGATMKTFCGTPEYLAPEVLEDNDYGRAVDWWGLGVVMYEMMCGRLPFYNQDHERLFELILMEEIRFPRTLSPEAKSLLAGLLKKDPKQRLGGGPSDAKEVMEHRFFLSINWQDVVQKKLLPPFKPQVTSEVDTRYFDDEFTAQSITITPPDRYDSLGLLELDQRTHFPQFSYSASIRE

Regarding `CCN1C(=O)COc2nc(-c3ccc([C@]4(N)C[C@@H](O)C4)cc3)c(-c3ccccc3)cc21` [VAD044 free base, 6-(4-(1-amino-3-hydroxycyclobutyl)phenyl)-1-ethyl-7-phenyl-1H-pyrido[2,3-b][1,4]oxazin-2(3H)-one], in data set [1], the Cavg (effective concentration) turned out to be 22.9 ng/mL.
For `CCCCCCCCCCCCCCCCCCOP(=O)([O-])OC1CC[N+](C)(C)CC1` [Perifosine], in data set [2] (daily intraperitoneal administration at 25 mg·kg-1), the pup death entry is “resulted in pup death”. The “anti-angiogenic properties (overall conclusion)” value in data set [3] is given as “weak anti-angiogenic properties”. Moreover, in data set [3] (once at P4, 100 mg·kg-1), the vascular radial expansion entry is given as “reduced vascular radial expansion”. For the same compound, in data set [3] (once at P4, 5 to 10 mg·kg-1), the effect on angiogenesis entry is given as “did not affect angiogenesis”. Further, the “number of branch points and vascular area of the retinal vascular bed” value in data set [3] (once at P4, 25 to 100 mg·kg-1) was “slight reduction”. The weight gain entry in data set [4] (injected once at P4, 50 mg·kg-1) is reported as “delayed weight gain”. Further, the pup mortality result in data set [4] (injected once at P4, 100 mg·kg-1) was “induced important pup mortality”. In addition, the adverse effects entry in data set [4] (injected once at P4, 5 to 25 mg·kg-1) is “No adverse effects”. Moreover, the “prevention of AVM formation” value in data set [5] (Eng-iKO mice, 25 or 50 mg·kg-1 i.p at P3 and P5, or 10 mg·kg-1 daily P3 to P6) is “unable to prevent AVM formation”. Also, the “inhibition of angiogenesis in Eng-iKO mice” value in data set [5] (Eng-iKO mice, doses and injection schemes tested) is on record as “did not inhibit angiogenesis”. Moreover, in data set [5] (HHT1 mouse model, 25 and 50 mg·kg-1), the “effects in shunt formation” value is on record as “no significant effects”. The “efficacy on shunt formation” value in data set [5] (injected every day at 10 mg·kg-1) is “trend for efficacy was observed but statistical significance was not achieved”. Further, in data set [6], the “cellular inhibitory activity on AKT” value is listed as “uM range”.
For the compound `O=C1CCC(N2C(=O)c3ccccc3C2=O)C(=O)N1` (centres unmarked) [Thalidomide], the “severity and frequency of nosebleeds” value in data set [7] is “reduce the severity and frequency of nosebleeds”.
Take `Cn1ncc(Cl)c1-c1cc(C(=O)N[C@H](CN)Cc2ccc(F)c(F)c2)oc1Cl` [Uprosertib]: the pups mortality result in data set [2] (5 mg·kg−1 injected twice at P3 and P6) was “high levels of pups mortality”. The pup death entry in data set [2] (Eng-iKO mice, 1 to 5 mg·kg−1 bodyweight) is “death of the majority of the pups”. The pup death entry in data set [2] (Eng-iKO mice, two injections at P3 and P5) is “death of the majority of the pups”. In data set [3], the “anti-angiogenic properties (overall conclusion)” value is “potent inhibitor of angiogenesis; also recorded: potent antiangiogenic properties”. In data set [3] (setting [8]), the “number of branch points” value is given as “marked decrease”, the radial expansion entry is given as “slight decrease” and the vascular area entry was “marked decrease”.
For the compound `CCCN1C(=O)COc2nc(-c3ccc([C@]4(N)C[C@](C)(O)C4)cc3)c(-c3ccccc3)cc21` [Compound 6], the “binding site in co-crystal structure” value on AKT2 is on record as “binds in an allosteric binding pocket”.
